Key:
[1] = tested on: MDCK cells; assay: MTT cytotoxicity assay on MDCK cells; type: cell-based, canine; conditions: Canis lupus familiaris, 100 μmol/L, 24 h, mean ± SD of three replicates, read-out: Growth Inhibition Rate (%)
In short: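 MDCK cells at 10^4/well, grown 24 h, exposed 24 h to compound at 100 μmol/L (saline control; hydrochlorothiazide 100 μmol/L reference). MTT 4 h, DMSO solubilization, OD 490 nm; growth inhibition % = (ODblank − ODexperimental)/ODblank × 100.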

[2] = tested on: Cl^− transport, MDCK cells; assay: In vitro diuretic activity: Cl^− transport inhibition, Transwell chamber seeded with MDCK cells; type: cell-based, canine; conditions: Canis lupus familiaris; 100 μmol/L, MDCK cells in Transwell; mean ± SD of three replicates; negative = promotion; read-out: Transport Inhibition Rate (%) Cl^−
In short: (§1)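 MDCK monolayers on Transwell inserts (resistance ≥300 Ω cm^2) exposed apically to compounds at 100 μmol/L for 24 h. Then 15 mg/mL NaCl added to upper chamber; Na^+ and Cl^− in lower fluid measured by kit OD at 0.5, 1, 2 and 3 h. Inhibition % = (ODblank − ODexperimental)/ODblank × 100, blank = normal saline.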

[3] = tested on: mice; design: method as in PMID 32602352; conditions: cited from earlier work
[4] = tested on: Na^+ transport, MDCK cells; assay: In vitro diuretic activity: Na^+ transport inhibition, Transwell chamber seeded with MDCK cells; type: cell-based, canine; conditions: for inhibition at 100 µM: Canis lupus familiaris, MDCK, read-out: Transport Inhibition Rate (%) Na^+; for inhibition at 100 µM / Transport Inhibition Rate (%) Na^+: 100 μmol/L, MDCK cells in Transwell, mean ± SD of three replicates, negative = promotion
In short: as §1

[5] = tested on: Ca^2+ transport, MDCK cells; assay: In vitro litholytic activity: Ca^2+ transport inhibition, Transwell chamber with MDCK cells; type: cell-based, canine; conditions: Canis lupus familiaris, 100 μmol/L, mean ± SD of three replicates, read-out: Transport Inhibition Rate (%) Ca^2+
[6] = tested on: C2O4^2− transport, MDCK cells; assay: In vitro litholytic activity: C2O4^2− transport inhibition, Transwell chamber with MDCK cells; type: cell-based, canine; conditions: Canis lupus familiaris; 100 μmol/L, MDCK cells in Transwell; mean ± SD of three replicates; read-out: Transport Inhibition Rate (%) C2O4^2−
In short: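 MDCK monolayers in Transwell upper chamber, used once resistance ≥300 Ω cm^2, treated 24 h with compounds at 100 μmol/L or saline. CaC2O4 (30 mmol/L) then added above, PBS below; lower-chamber Ca^2+ and C2O4^2− measured by kit at 0.5, 1, 2, 3 h, inhibition rate from OD versus blank.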

Compound | inhibition at 100 µM [1] | inhibition at 100 µM [2] | diuretic effect on mice [3] | inhibition at 100 µM [4] | inhibition at 100 µM [5] | inhibition at 100 µM [6] | Transport Inhibition Rate (%) Na^+ [4] | melting point | Na^+ transport inhibition rate at 1, 2, and 3 h ([4]; evaluated at 1, 2, and 3 h (Figure 3))
COc1cc(C)c(C(=O)Oc2cc(C)c(C(=O)O)c(O)c2C)c(O)c1C [Compound 1, Barbatic acid] | < 0% | 2.34 ± 1.2% | had a diuretic effect on mice | 12.3 ± 0.5% | 8.8 ± 0.18% | 2.97 ± 2.21% | – | – | –
CCOC(=O)c1c(C)cc(OC(=O)c2c(C)cc(OC(C)C)c(C)c2O)c(C)c1O [Compound 6w, 4-(ethoxycarbonyl)-3-hydroxy-2,5-dimethylphenyl 2-hydroxy-4-isopropoxy-3,6-dimethylbenzoate] | 0.7 ± 0.3% | -80.4 ± 1.2% | – | > 30% | 1.55 ± 0.11% | 19 ± 2.64% | 33.11 ± 0.55% | 62 to 65 °C | –
CCCOc1cc(C)c(C(=O)Oc2cc(C)c(C(=O)OC(C)C)c(O)c2C)c(O)c1C [Compound 6t, 3-hydroxy-4-(isopropoxycarbonyl)-2,5-dimethylphenyl 2-hydroxy-3,6-dimethyl-4-propoxybenzoate] | 1.42% | -44.1 ± 3.5% | – | -37.6 ± 0.55% | -1.74 ± 0.29% | 11.9 ± 5.83% | – | 112 to 115 °C | –
Cc1cc(OCc2ccccc2)c(C)c(O)c1C(=O)Oc1cc(C)c(C(=O)OC(C)C)c(O)c1C [6m′, 3-hydroxy-4-(isopropoxycarbonyl)-2,5-dimethylphenyl 4-(benzyloxy)-2-hydroxy-3,6-dimethylbenzoate] | < 0% | -4.93 ± 2.95% | – | -0.36 ± 0.4% | -2.06 ± 0.09% | 2.28 ± 1.34% | – | 135 to 138 °C | –
CCOC(=O)c1c(C)cc(OC(=O)c2c(C)cc(OC)c(C)c2O)c(C)c1O [Compound 6c, 4-(ethoxycarbonyl)-3-hydroxy-2,5-dimethylphenyl 2-hydroxy-4-methoxy-3,6-dimethylbenzoate] | < 0% | -7.56 ± 0.35% | – | > 30% | -2.3 ± 0.34% | 1.01 ± 2.03% | 47.18 ± 0.80% | 175 to 178 °C | above 20%

From PMC10222548, “Semisynthesis, Biological Evaluation and Molecular Docking Studies of Barbatic Acid Derivatives as Novel Diuretic Candidates” (Molecules, 2023)
